# According to patent US12286402B2, “Compounds and their use for the treatment of alpha1-antitrypsin deficiency” (CENTESSA PHARMACEUTICALS (UK) LIMITED, priority 2019, dated 2025):
# Target: T1, human Z A1AT (Homo sapiens, UniProt P01009, E366K)
# T1 construct: expressed in transfected cells; host or cells: HEK-Z cells (human embryonic kidney cell line stably transfected with the human Z A1AT gene)
# Assay: A1AT cell secretion assay using HEK-Z cells (A1AT ELISA of supernatants)
# Assay type: cell-based
# Settings: 48 h, supernatant A1AT by ELISA
# Experimental: HEK-Z cells, a human embryonic kidney cell line stably transfected with the human Z A1AT gene, were plated into 96 well plates (3.0×10^5 cells/ml with 200 μl of media/well) overnight at 37° C. in a humidified atmosphere containing 5% CO2. Following incubation cells were washed with 200 μl serum-free media three times and media was replaced with treatments in quadruplicate using serum free media containing either vehicle, 10 μM suberanilohydroxamic acid (SAHA) or a compound of the invention (at concentrations of 10, 33, 100 and 333 nM) for 48 h in a 37° C. incubator in a final volume of 200 μl. At the end of the incubation step the supernatants were removed from the wells, centrifuged at 1000×g at 4° C. for 10 min and were assayed for human A1AT levels by ELISA (Human Serpin A1/α1-antitrypsin duo set ELISA, R& D Systems, DY1268) per manufacturer's instructions.
# Briefly, a 96 well plate was coated with human A1AT capture antibody overnight at room temperature (1:180 dilution from stock, 100 μl final volume/well). The capture antibody was then removed and wells washed three times with 300 μl wash buffer (0.05% Tween 20 in PBS) and then 200 μl reagent diluent ([…]) was incubated in each well for 1 h at room temperature. Diluted samples, standards (125, 250, 500, 1000, 2000, 4000 and 8000 pg/ml A1AT) or blanks were then added to each well in duplicate and the plates were covered with a plate sealer and left at room temperature for 2 h. At the end of the sample incubation step, samples were removed and all wells washed as previously and 100 μl detection antibody (1:180 dilution from stock) was added to each well and incubated for a further 2 h at room temperature. Following incubation with detection antibody, supernatant was removed and wells were washed as previously and 100 μl streptavidin-HRP solution (1:200 dilution from stock) was added to each well for 20 min in the dark. After which, 50 μl stop solution (2M H2SO4) was added and optical density (OD) of each well was read at 450 nm with 570 nm blank subtracted from each well using a microplate reader. A 4 parameter logistic curve was constructed using GraphPad Prism 7 and A1AT concentrations were determined in each sample by interpolation from a standard curve and multiplying by the appropriate dilution factor.
# T1 sequence (P01009 25-418 E366K): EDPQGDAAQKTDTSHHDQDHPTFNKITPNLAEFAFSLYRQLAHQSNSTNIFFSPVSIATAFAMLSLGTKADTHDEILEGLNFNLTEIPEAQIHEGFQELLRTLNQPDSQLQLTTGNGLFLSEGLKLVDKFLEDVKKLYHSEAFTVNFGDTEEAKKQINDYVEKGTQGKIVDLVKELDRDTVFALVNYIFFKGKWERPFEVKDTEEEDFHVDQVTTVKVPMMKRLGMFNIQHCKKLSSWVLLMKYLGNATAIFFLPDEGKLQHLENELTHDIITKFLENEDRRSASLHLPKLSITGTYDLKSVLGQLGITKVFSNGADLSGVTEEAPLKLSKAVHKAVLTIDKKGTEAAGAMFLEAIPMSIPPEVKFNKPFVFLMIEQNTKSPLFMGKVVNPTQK
row,Median A1AT % increase over vehicle at 300 nM,SMILES
1,125%,"CN(C)C(=O)c1ccc(Cn2ccccc2=O)cc1 [Example 1, N,N-dimethyl-4-((2-oxopyridin-1(2H)-yl)methyl)benzamide]"
2,147%,"CCN(C)C(=O)c1ccc(Cn2ccccc2=O)cc1 [Example 2, N-ethyl-N-methyl-4-((2-oxopyridin-1(2H)-yl)methyl)benzamide]"
3,134%,"CC(C)N(C)C(=O)c1ccc(Cn2ccccc2=O)cc1 [Example 3, N-isopropyl-N-methyl-4-((2-oxopyridin-1(2H)-yl)methyl)benzamide]"
4,129%,"CN(CC(F)(F)F)C(=O)c1ccc(Cn2ccccc2=O)cc1 [Example 5, N-methyl-4-((2-oxopyridin-1(2H)-yl)methyl)-N-(2,2,2-trifluoroethyl)benzamide]"
5,142%,"CN(Cc1ccccc1)C(=O)c1ccc(Cn2ccccc2=O)cc1 [Example 4, N-benzyl-N-methyl-4-((2-oxopyridin-1(2H)-yl)methyl)benzamide]"
